We go through five compounds from patent US20230016424A1, “HYBRID AMIDE DERIVATIVES OF AMPHOTERICIN B” (The Board of Trustees of the University of Illinois, priority 2019, published 2023).

In one data set the test system is C. albicans SN250. The data set is described as follows: MIC. Format: cell-based, Candida albicans.
Another data set has as its system C. albicans. The data set is described as follows: MIC. The class given is cell-based.
In the next data set the test system is C. krusei. Kind of data set: MIC. Format: cell-based.
In another data set the test system is C. glabrata. Kind of data set: MIC. The class given is cell-based.
The next data set concerns C. tropicalis. Kind of data set: MIC. Format: cell-based.
A further data set deals with A. fumigatus 91. Kind of data set: MIC. The class given is cell-based.
The test system of a further data set is A. fumigatus 1163. Kind of data set: MIC. Format: cell-based.
Another data set deals with A. fumigatus 1100. The data set is described as follows: MIC. The class given is cell-based.
In data set [1] the test system is C. albicans SN250, C. albicans, C. krusei, C. glabrata, C. tropicalis, A. fumigatus 91, 1163, 1100. Kind of data set: Average MIC over the tested strains. The settings on record: for MIC: average over the 8 listed strains; for Average MIC for AmB analogue: value of the corresponding AmB analogue, not of the C2’epi compound. Format: cell-based.
The next data set relates to human erythrocytes. Kind of data set: MHC hemolysis assay. The class given is cell-based. The settings on record: hemolysis, human erythrocytes, 37° C. 2 hours. On the procedure: MHC (FIG. 21B): The protocol for the hemolysis assay was adapted from the report of Paquet and coworkers (Chem. Eur. J. 2008, 14, 2465-2481). Whole human blood (sodium heparin) was purchased from Bioreclamation LLC (Westbury, N.Y.) and stored at 4° C. and used within two days of receipt. To a 2.0 mL eppendorf tube, 1 mL of whole human blood was added and centrifuged at 10,000 g for 2 minutes. The supernatant was removed and the erythrocyte pellet was washed with 1 mL of sterile saline and centrifuged at 10,000 g for 2 minutes. The saline wash was repeated for a total of three washes. The erythrocyte pellet was suspended in 1 mL of RBC buffer (10 mM NaH2PO4, 150 mM NaCl, 1 mM MgCl2, pH 7.4) to form the erythrocyte stock suspension.
Compounds were prepared as >15 mM stock solutions in DMSO and serially diluted to the following concentrations with DMSO: 7689, 5126, 2563, 2050, 1538, 1025, 769, 513, 384, 256, 205, 154, 103, 77, 51, 26 μM. To a 0.2 mL PCR tube, 24 μL of RBC buffer and 1 μL of compound stock solution were added, which gave final concentrations of […]. Positive and negative controls were prepared by adding 1 μL of DMSO to MilliQ water or RBC buffer, respectively to 0.2 mL PCR tube. To each PCR tube, 0.63 μL of the erythrocyte stock suspension was added and mixed by inversion. The samples were incubated at 37° C. for 2 hours. The samples were mixed by inversion and centrifuged at 10,000 g for 2 minutes. 15 μL of the supernatant from each sample was added to a 384-well place. Absorbances were read at 540 nm using a Biotek H1 Synergy Hybrid Reader (Wanooski, Vt.). Experiments were performed in triplicate and the reported MHC represents an average of three experiments.

Data set [2] is described as follows: UV-Vis sterol binding assay. On the procedure: However, an alternative method was developed for reproducible formation of homogenous AmB and C2′epiAmB sterol sponge aggregates in vitro. Using these preparations, a quantitative UV-Vis and Principle Component (PCA) based assay for determining the apparent KDs for the binding of AmB and C2′epiAmB to ergosterol and cholesterol (FIGS. 5A-5D) was developed.
UV-Vis Binding Assay (FIG. 21A): The protocol for the sterol binding assay (UV-Vis) was developed in our lab. Compounds were dissolved in DMSO at a final concentration of 1 mM. Sterol were first dissolved in CHCl3 (>200 mM) and then diluted to 1 mM concentration with DMSO. To synthesize the complex 1 ul of compound solution was taken in a clean eppendorf tube (2 ml) and sterol solution (volume depends on the stoichiometry) was added to it and the volume was made up to 20 ul with DMSO. 0.98 ml of PBS buffer was added to the Eppendorf tube and mixed properly. The absorbance of the solution was measured after 30 mins of incubation.

The next data set in a line: Plasma Stability. Format: in vitro ADME. On the procedure: Plasma Stability: Procedure: […] Plasma was warmed to 37° C. prior to the experiment and centrifuged for 5 mins at 4000 rpm. […] Each time point was monitored in triplicate (0, 10, 30, 60 and 120 min). 4 uL/well aliquot of the working solution was mixed to the blank plasma and incubated at 37° C. AT each time point samples were quenched with ACN stop solution containing 200 ng/ml Tolbutamide & 200 ng/ml Labetalol at 1:3 ratio and mix well on shaker for 10 min then centrifuge at 4000 rpm for 15 min. A 100 ul aliquot of supernatant was mixed with 100 μL of ultra-pure and submitted for LC-MS/MS analysis.

A short description of data set [3]: Liver Microsome stability (In Vitro Metabolism). Format: in vitro ADME. Conditions: for Remaining (T = NCF60 min): no cofactor 60 min. On the procedure:
Working Compound solution: 10 uM in 50 mM potassium phosphate buffer with 9% MeOH and 1% DMSO
Microsome solution: working concentration 0.625 mg/ml
Stopping solution: Cold ACN with 200 ng/ml Tolbutamide and 200 ng/ml Labetalol (4° C.)
Procedure: In the well plates (T5, T10, T20, T30, T60, NCF60 (no cofactor 60)) 10 uL of the compound/control working solution was added (except T0 and matric blank) followed by microsome solution (80 uL) and the mixture was incubated at 37 C for about 10 mins. A solution of potassium phosphate (10 ul of 50 mM) was added to NCF60 well, incubated at 37 C and time counting started. After prewarming 10 ul of NADPH regenerating solution was added to each plate to start the reaction. At different time point 300 uL/well of stopping solution to terminate the reaction. The sampling plates were shaken for 10 mins and the centrifuged for 20 mins at 4000 rpm. The supernatant was half diluted with ultra pure water and the analyzed using LCMS.

Another data set has as its target CYP2C9 (Homo sapiens, UniProt P11712). Kind of data set: CYP Inhibition. The settings on record: human. On the procedure: (§1) The working solutions of the test compounds and the standard inhibitors were prepared in DMSO (100× final concentration). 20 ul of substrate solution (5 in 1 cocktail) was added to the wells followed by 2 ul test compound solution was added. 158 ul of human liver microsome (HLM) was added to all the wells of the incubated plate and warmed to 37° C. for 10 mins. 20 ul of NADPH cofactor solution was then added to all the wells of incubated plate and incubated at 37° C. for 10 mins. At the time point the reaction was quenched by adding 400 uL of cold stop solution. The samples were centrifuged at 4000 rpm for 20 mins to precipitate protein. 100 ul supernatant was diluted with 100 ul of ultra pure water and analyzed using LCMS.

The target in the next data set is CYP2D6 (Homo sapiens, UniProt P10635). Kind of data set: CYP Inhibition. The settings on record: human. On the procedure: as §1

≈ marks a conversion by molar mass, not a printed value. Read-outs that look alike come from different tables or passages of the source. Some results are limits rather than exact numbers.

Chain of CYP2D6 (P10635 whole entry): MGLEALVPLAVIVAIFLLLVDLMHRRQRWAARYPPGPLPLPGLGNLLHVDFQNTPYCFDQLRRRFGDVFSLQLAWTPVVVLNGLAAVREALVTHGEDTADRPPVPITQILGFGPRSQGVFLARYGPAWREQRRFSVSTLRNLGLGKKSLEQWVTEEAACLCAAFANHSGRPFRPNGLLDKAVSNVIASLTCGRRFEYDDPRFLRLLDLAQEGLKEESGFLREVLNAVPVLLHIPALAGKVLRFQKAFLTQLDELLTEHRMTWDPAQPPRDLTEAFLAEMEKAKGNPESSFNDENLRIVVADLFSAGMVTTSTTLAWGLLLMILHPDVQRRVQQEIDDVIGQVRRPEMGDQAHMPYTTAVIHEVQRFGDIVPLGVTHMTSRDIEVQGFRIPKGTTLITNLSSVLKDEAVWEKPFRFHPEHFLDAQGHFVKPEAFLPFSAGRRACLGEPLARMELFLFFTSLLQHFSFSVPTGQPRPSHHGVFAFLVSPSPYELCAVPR
Chain of CYP2C9 (P11712 whole entry): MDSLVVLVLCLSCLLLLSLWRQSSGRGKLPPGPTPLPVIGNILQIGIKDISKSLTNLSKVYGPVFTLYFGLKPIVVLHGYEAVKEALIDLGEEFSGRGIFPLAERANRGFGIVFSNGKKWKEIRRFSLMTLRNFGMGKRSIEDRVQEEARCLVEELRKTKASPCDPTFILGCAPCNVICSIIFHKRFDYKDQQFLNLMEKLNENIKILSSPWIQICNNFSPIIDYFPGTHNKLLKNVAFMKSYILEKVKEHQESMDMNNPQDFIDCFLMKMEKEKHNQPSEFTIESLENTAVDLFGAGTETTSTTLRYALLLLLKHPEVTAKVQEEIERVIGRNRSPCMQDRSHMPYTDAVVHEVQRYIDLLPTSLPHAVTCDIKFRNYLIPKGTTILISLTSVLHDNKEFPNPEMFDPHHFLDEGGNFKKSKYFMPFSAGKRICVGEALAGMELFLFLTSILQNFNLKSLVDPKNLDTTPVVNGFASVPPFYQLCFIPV

For the compound `CNC(=O)C1C(O)CC2(O)CC(O)CC(O)C(O)CCC(O)CC(O)CC(=O)OC(C)C(C)C(O)C(C)C=CC=CC=CC=CC=CC=CC=CC(OC3OC(C)C(O)C(N)C3O)CC1O2` (stereo not drawn) [BB], in the data set on C. albicans SN250, the “MIC C. albicans SN250” value stood at 0.5 µM (≈ 0.469 µg/mL). For the same compound, the “MIC C. albicans” value against C. albicans was 0.5 µM (≈ 0.469 µg/mL). The “MIC C. krusei” value with C. krusei came to 2 µM (≈ 1.87 µg/mL). Besides, the “MIC C. glabrata” value in the data set on C. glabrata was 0.375 µM (≈ 0.351 µg/mL). The “MIC C. tropicalis” value in the data set on C. tropicalis was 0.5 µM (≈ 0.469 µg/mL). The “MIC A. fumigatus 91” value against A. fumigatus 91 was 4 µM (≈ 3.75 µg/mL). In the data set with A. fumigatus 1163, the “MIC A. fumigatus 1163” value was determined as 4 µM (≈ 3.75 µg/mL). For the same compound, the “MIC A. fumigatus 1100” value against A. fumigatus 1100 was found to be 2 µM (≈ 1.87 µg/mL). Besides, in data set [1], the minimal inhibitory concentration (MIC) is recorded as 1.734 µM and the “Average MIC for AmB analogue” value is recorded as 0.336 μM. Besides, the MHC in the data set with human erythrocytes is greater than 500 µM. In addition, the “Cholesterol Binding” value in [2] is “No”.

Take `CC1C=CC=CC=CC=CC=CC=CC=CC(OC2OC(C)C(O)C(N)C2O)CC2OC(O)(CC(O)CC(O)C(O)CCC(O)CC(O)CC(=O)OC(C)C(C)C1O)CC(O)C2C(=O)NCCO` (stereo not drawn) [Compound AA]: the “MIC C. albicans SN250” value in the data set with C. albicans SN250 was determined as 0.25 µM (≈ 0.242 µg/mL). Moreover, the “MIC C. albicans” value against C. albicans and in the data set on C. albicans (listed as AmBHEA) was 0.225 µM (≈ 0.218 µg/mL) each time. The “MIC C. krusei” value in the data set with C. krusei and against C. krusei (listed as AmBHEA) was 0.45 µM (≈ 0.435 µg/mL) throughout. Further, the “MIC C. glabrata” value in the data set on C. glabrata and against C. glabrata (listed as AmBHEA) was 0.145 µM (≈ 0.14 µg/mL) each time. Besides, the “MIC C. tropicalis” value in the data set on C. tropicalis and in the data set with C. tropicalis (listed as AmBHEA) was 0.225 µM (≈ 0.218 µg/mL) each time. For the same compound, the “MIC A. fumigatus 91” value with A. fumigatus 91 and against A. fumigatus 91 (listed as AmBHEA) was 1 µM (≈ 0.967 µg/mL) each time. The “MIC A. fumigatus 1163” value with A. fumigatus 1163 and against A. fumigatus 1163 (listed as AmBHEA) was 0.525 µM (≈ 0.508 µg/mL) each time. In addition, the “MIC A. fumigatus 1100” value with A. fumigatus 1100 and against A. fumigatus 1100 (listed as AmBHEA) was 0.7 µM (≈ 0.677 µg/mL) each time. In addition, the MIC in [1] and in data set [1] (listed as AmBHEA) was 0.44 µM each time. Moreover, the “% Remaining at 120 min” value in “Plasma Stability” (Human Plasma) is recorded as 119%; in “Plasma Stability” (Rat Plasma) it was 108%. For the same compound, the “Half Life” value in the data set “Plasma Stability” (Human Plasma) and in the data set “Plasma Stability” (Rat Plasma) was greater than 289 min throughout. In addition, the CL in [3] (Dog liver microsomes), in [3] (Human liver microsomes), in data set [3] (Monkey liver microsomes), in [3] (Mouse liver microsomes) and in data set [3] (Rat liver microsomes) was less than 9.6 µL/min/mg each time. Further, the CLint in [3] (Dog liver microsomes) was less than 14 mL/min/kg; in [3] (Human liver microsomes) it was less than 8.6 mL/min/kg; in data set [3] (Monkey liver microsomes) it was less than 13 mL/min/kg; in data set [3] (Mouse liver microsomes), less than 38 mL/min/kg; in [3] (Rat liver microsomes), less than 17 mL/min/kg. Besides, the “Remaining (T = 60 min)” value is 88.5% in data set [3] (Dog liver microsomes); 111% in data set [3] (Human liver microsomes); 113% in data set [3] (Monkey liver microsomes); 118% in data set [3] (Mouse liver microsomes); 130% in data set [3] (Rat liver microsomes). The T1/2 in data set [3] (Dog liver microsomes), in data set [3] (Human liver microsomes), in data set [3] (Monkey liver microsomes), in data set [3] (Mouse liver microsomes) and in data set [3] (Rat liver microsomes) was greater than 145 min each time. In addition, the “Remaining (T = NCF60 min)” value in data set [3] (Dog liver microsomes) is reported as 97.4%; in data set [3] (Human liver microsomes), 142%; in data set [3] (Monkey liver microsomes), 103%; in data set [3] (Mouse liver microsomes), 140%; in [3] (Rat liver microsomes), 113%.

Regarding `CC1C=CC=CC=CC=CC=CC=CC=CC(OC2OC(C)C(O)C(N)C2O)CC2OC(O)(CC(O)CC(O)C(O)CCC(O)CC(O)CC(=O)OC(C)C(C)C1O)CC(O)C2C(=O)NCCN` (stereo not drawn) [BC], the “MIC C. albicans SN250” value in the data set on C. albicans SN250 came to 0.5 µM (≈ 0.483 µg/mL). The “MIC C. albicans” value against C. albicans amounted to 0.5 µM (≈ 0.483 µg/mL). Also, in the data set on C. krusei, the “MIC C. krusei” value was found to be 4 µM (≈ 3.86 µg/mL). In addition, the “MIC C. glabrata” value against C. glabrata stood at 0.5 µM (≈ 0.483 µg/mL). Further, the “MIC C. tropicalis” value against C. tropicalis is 0.5 µM (≈ 0.483 µg/mL). Moreover, in the data set on A. fumigatus 91, the “MIC A. fumigatus 91” value came out at 4 µM (≈ 3.86 µg/mL). In addition, the “MIC A. fumigatus 1163” value with A. fumigatus 1163 worked out at 2 µM (≈ 1.93 µg/mL). Moreover, the “MIC A. fumigatus 1100” value in the data set on A. fumigatus 1100 worked out at 2 µM (≈ 1.93 µg/mL). Also, in data set [1], the MIC is 1.750 µM and the “Average MIC for AmB analogue” value was found to be 0.563 μM. The MHC with human erythrocytes was found to be 250 µM. In data set [2], the “Cholesterol Binding” value is recorded as “Yes?”.

As to `Nc1ccc(S(=O)(=O)Nc2ccnn2-c2ccccc2)cc1` [Sulfaphenazole, reference compound], the inhibition at 10 min, 3 µM against CYP2C9 was 69.7%.

`C=C[C@H]1C[N@@]2CC[C@H]1C[C@@H]2[C@@H](O)c1ccnc2ccc(OC)cc12` [Quinidine, reference compound] displayed an inhibition at 10 min, 3 µM on CYP2D6 of 95.3%.
